In ChEMBL document CHEMBL1124419, “Potential tumor- or organ-imaging agents. 29. Radioiodinated esters and amides of 20-hydroxy- and 20-aminopregn-5-en-3 beta-ols” (J Med Chem, 1989):

Assays:
Conditions in all cases: in vivo
Rattus norvegicus [1] = experiment: Concentration accumulated in liver at 24 hr r after intravenous administration in rat; type: ADME, organism-based
Rattus norvegicus [2] = experiment: Concentration accumulated in kidney at 24 hr r after intravenous administration in rat; type: ADME, organism-based
Rattus norvegicus [3] = experiment: Concentration accumulated in blood at 24 hr r after intravenous administration in rat; type: ADME, organism-based
Rattus norvegicus [4] = experiment: Concentration accumulated in ovary at 0.5 hr after intravenous administration in rat; type: ADME, organism-based, Female gonad
Rattus norvegicus [5] = experiment: Concentration accumulated in kidney at 0.5 hr after intravenous administration in rat; type: ADME, organism-based
Rattus norvegicus [6] = experiment: Concentration accumulated in liver at 0.5 hr after intravenous administration in rat; type: ADME, organism-based
Rattus norvegicus [7] = experiment: Concentration accumulated in adrenal cortex at 0.5 hr after intravenous administration in rat; type: ADME, organism-based
Rattus norvegicus [8] = experiment: Concentration accumulated in blood at 0.5 hr after intravenous administration in rat; type: ADME, organism-based
Rattus norvegicus [9] = experiment: Concentration accumulated in thyroid at 24 hr r after intravenous administration in rat; type: ADME, organism-based, Thyroid gland
Rattus norvegicus [10] = experiment: Concentration accumulated in thyroid at 0.5 hr after intravenous administration in rat; type: ADME, organism-based, Thyroid gland
Rattus norvegicus [11] = experiment: Concentration accumulated in adrenal cortex at 24 hr r after intravenous administration in rat; type: ADME, organism-based
Rattus norvegicus [12] = experiment: Concentration accumulated in ovary at 24 hr r after intravenous administration in rat; type: ADME, organism-based, Female gonad

| Compound | Dose/g (Rattus norvegicus [1]) | Dose/g (Rattus norvegicus [2]) | Dose/g (Rattus norvegicus [3]) | Dose/g (Rattus norvegicus [4]) | Dose/g (Rattus norvegicus [5]) | Dose/g (Rattus norvegicus [6]) | Dose/g (Rattus norvegicus [7]) | Dose/g (Rattus norvegicus [8]) | Dose/g (Rattus norvegicus [9]) | Dose/g (Rattus norvegicus [10]) | Dose/g (Rattus norvegicus [11]) | Dose/g (Rattus norvegicus [12]) |
| --- | --- | --- | --- | --- | --- | --- | --- | --- | --- | --- | --- | --- |
| C[C@H](OC(=O)c1ccccc1I)C1CCC2C3CC=C4CC(O)CCC4(C)C3CCC21C (stereo not given in full) | 0.2% | 0.11% | 0.05% | 1.49% | 1.29% | 3.92% | 10.04% | 0.59% | 511.17% | 4.96% | 0.31% | 0.26% |
| C[C@H](NC(=O)c1ccccc1I)C1CCC2C3CC=C4CC(O)CCC4(C)C3CCC21C (stereo not given in full) | 0.06% | 0.01% | < 0.01% | 0.58% | 0.41% | 3.85% | 2.49% | 0.1% | 51.14% | 2.2% | 0.1% | 0.09% |
| C[C@@H](OC(=O)c1ccccc1I)C1CCC2C3CC=C4CC(O)CCC4(C)C3CCC21C (stereo not given in full) | 0.11% | 0.05% | 0.02% | 1.67% | 1.59% | 6.04% | 6.83% | 0.25% | 52.36% | 2.93% | 1.23% | 0.26% |
| C[C@@H](NC(=O)c1ccccc1I)C1CCC2C3CC=C4CC(O)CCC4(C)C3CCC21C (stereo not given in full) | 0.22% | 0.02% | < 0.01% | 0.53% | 0.47% | 1.28% | 1.66% | 0.08% | 24.65% | 1.4% | 0.55% | 0.07% |
| CC(C)CCCC(C)C1CCC2C3CC(CI)C4=C(CCC(O)C4)C3CCC12C (stereo not given) | 1.34% | 0.76% | 0.87% | 4.1% | 0.45% | 4.57% | 17.89% | 2.35% | 111.3% | 1.37% | 116.21% | 33.1% |
